Source: article PMC9564337, “Development of a Neurotensin-Derived ^68Ga-Labeled PET Ligand with High In Vivo Stability for Imaging of NTS1 Receptor-Expressing Tumors” (Cancers, 2022)
Read-outs that look alike come from different tables or passages of the source. Residues, ends and D or L forms follow the SMILES beside them.

Tests used:
hNTS1R = biological target: T1, hNTS1R (Homo sapiens, UniProt P30989); assay: radioligand competition binding with [3H]UR-MK300 at intact HT-29 cells
T1 construct: intact HT-29 colon carcinoma cells expressing the hNTS1R; host or cells: HT-29 human colon carcinoma cells
T1 sequence (P30989 whole entry): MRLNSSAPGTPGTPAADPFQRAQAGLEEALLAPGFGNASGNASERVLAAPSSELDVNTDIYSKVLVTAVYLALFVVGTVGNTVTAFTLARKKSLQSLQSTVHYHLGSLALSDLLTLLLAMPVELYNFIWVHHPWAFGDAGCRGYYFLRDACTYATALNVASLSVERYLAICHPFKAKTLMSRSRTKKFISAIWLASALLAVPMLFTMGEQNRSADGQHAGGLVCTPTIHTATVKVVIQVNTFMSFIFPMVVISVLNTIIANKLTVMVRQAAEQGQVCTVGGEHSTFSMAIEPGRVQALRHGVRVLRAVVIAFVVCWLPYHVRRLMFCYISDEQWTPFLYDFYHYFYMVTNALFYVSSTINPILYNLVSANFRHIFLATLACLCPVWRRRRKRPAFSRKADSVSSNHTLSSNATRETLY
Source text: Specific binding data (obtained by subtracting unspecific binding from total binding) were normalized (100% = specifically bound radioligand in the absence of competitor) and plotted over log(concentration of competitor) followed by a four-parameter logistic fit (SigmaPlot 12.5, Systat Software, San José, CA, USA) (note: in the case of 40, the lower curve plateau of the sigmoidal fit was constrained to >0). […] The Ki values from individual experiments were transformed to pKi values, followed by the calculation of mean pKi values ± SD.

in vitro = in vitro ADME; conditions: human; for remaining at 1 h, 100 µM: pH 7.4, % Intact Peptide in Plasma after 1 h; for remaining at 6 h, 100 µM: pH 7.4, % Intact Peptide in Plasma after 6 h; for remaining at 24 h, 100 µM: pH 7.4, % Intact Peptide in Plasma after 24 h; for remaining at 48 h, 100 µM: pH 7.4, % Intact Peptide in Plasma after 48 h; for % Intact Peptide in Plasma after 24 h / % Intact Peptide in Plasma after 48 h / % Intact Peptide in Plasma after 6 h / % Intact Peptide in Plasma after 1 h: 100 µM, pH 7.4
Protocol: The concentration of the peptides in plasma/PBS (1:2 v/v) was 80 and 4 μM (recovery determination) or 100 μM (stability tests). Data analysis was based on UV detection at 220 nm (8, 9, 11, 12, 14-18, 21-23, 38-49, and 54-57) or fluorescence detection at 275/305 nm (19 and 20). Reference samples, representing 100% recovery, were prepared in duplicate (8, 9, 11, 14-16, and 19-21) or quadruplicate (12, 17, 18, 22, 23, 38-49, and 54-57). Recovery ratios were obtained by dividing the recovery of the peptide by the recovery of IS for each individual sample (n = 3-5). The obtained recoveries and the recovery ratios are summarized in Table S2, Supplementary Materials. […] Instead, the recovery ratios determined for the previously reported, structurally closely related peptide […] [40] were used for calculating the amount of remaining intact peptide in plasma.

[1] = [3H]UR-MK300 c = 1 nM, HT-29 cells, 23 °C, read-out: Ki [nM] NTS1R (converted)
[2] = [3H]UR-MK300 c = 1 nM, HT-29 cells, 23 °C, read-out: pKi ± SD NTS1R (converted)

Row | SMILES | Ki (hNTS1R; [1]) | Ki (hNTS1R; [2]) | remaining at 1 h, 100 µM (in vitro; plasma) | remaining at 6 h, 100 µM (in vitro; plasma) | remaining at 24 h, 100 µM (in vitro; plasma) | remaining at 48 h, 100 µM (in vitro; plasma) | other results
1 | CN[C@@H](CCCNC(=N)N)C(=O)N[C@@H](CCCNC(=N)N)C(=O)N1CCC[C@H]1C(=O)N[C@@H](Cc1ccc(O)cc1)C(=O)N[C@@](C)(CC(C)C)C(=O)N[C@@H](CC(C)C)C(=O)O [Compound 44] (HELM PEPTIDE1{[meR].R.P.Y.[CC(C)C[C@](C)(N[*:1])C(=O)[*:2]].L}$$$$V2.0) | > 1000 nM | > 1000 nM | 94 ± 1% | 91 ± 4% | 91 ± 1% | 87 ± 1% | 
2 | CN[C@@H](CCCNC(N)=NC(=O)NCCCCNC(=O)[C@H](N)Cc1ccc(-c2ccc(F)cc2)cc1)C(=O)N[C@@H](CCCNC(=N)N)C(=O)N1CCC[C@H]1C(=O)N[C@@H](Cc1ccc(O)cc1)C(=O)N[C@H](C(=O)N[C@@H](CC(C)C)C(=O)O)C(C)(C)C [Compound 25] | 4.3 nM | 4.27 nM |  |  |  |  | 
3 | CN[C@@H](CCCNC(=N)NC(=O)NCCOCCOCCNC(=O)CN1CCN(CC(=O)O)CCN(CC(=O)O)CCN(CC(=O)O)CC1)C(=O)N[C@@H](CCCNC(=N)N)C(=O)N1CCC[C@H]1C(=O)N[C@@H](Cc1ccc(O)cc1)C(=O)N[C@H](C(=O)N[C@@H](CC(C)C)C(=O)O)C(C)(C)C [Compound 18] | 36 nM |  |  | 99 ± 1% |  |  | % Intact Peptide in Plasma after 24 h (in vitro): 94 ± 1%; % Intact Peptide in Plasma after 48 h (in vitro): 86 ± 1%
4 | CC[C@H](C)[C@H](NC(=O)[C@@H](NC(=O)[C@@H]1CCCN1C(=O)[C@H](CCCNC(=N)N)NC(=O)[C@H](CCCNC(=N)N)NC)C(C)(C)c1ccc(O)cc1)C(=O)N[C@@H](CC(C)C)C(=O)O [Compound 48] |  |  | 90 ± 4% | 97 ± 6% | 92 ± 1% | 92 ± 1% | 
5 | CN[C@@H](CCCNC(N)=NC(=O)NCCOCCOCCNC(=O)CN1CCN(CC(=O)O)CCN(CC(=O)O)CCN(CC(=O)O)CC1)C(=O)N[C@@H](CCCNC(=N)N)C(=O)N1CCC[C@H]1C(=O)N[C@@H](Cc1ccc(O)cc1)C(=O)N[C@H](C(=O)N[C@@H](CC(C)C)C(=O)O)C(C)(C)C [Compound 23] | 7.5 nM |  | > 99% |  |  |  | pKi ± SD NTS1R (hNTS1R; [3H]UR-MK300 c = 1 nM, HT-29 cells, 23 °C): 8.13 ± 0.11; % Intact Peptide in Plasma after 6 h (in vitro): 98 ± 6%; % Intact Peptide in Plasma after 24 h (in vitro): 46 ± 2%; % Intact Peptide in Plasma after 48 h (in vitro): 7.8 ± 0.6%
6 | CN[C@@H](CCCNC(N)=NC(=O)NCCOCCOCCNC(=O)[C@@H](Cc1ccc(-c2ccc(F)cc2)cc1)NC(=O)CCCCCNC(=O)CN1CCN(CC(=O)O)CCN(CC(=O)O)CCN(CC(=O)O)CC1)C(=O)N[C@@H](CCCNC(=N)N)C(=O)N1CCC[C@H]1C(=O)N[C@@H](Cc1ccc(O)cc1)C(=O)N[C@H](C(=O)N[C@@H](CC(C)C)C(=O)O)C(C)(C)C [Compound 33] |  |  |  |  |  |  | increase in NTS1R affinity upon insertion of Ga3+ (hNTS1R; versus the precursor with empty DOTA chelator (32 or 54)): 4.8 fold
7 | CC[C@](C)(NC(=O)[C@H](Cc1ccc(O)cc1)NC(=O)[C@@H]1CCCN1C(=O)[C@H](CCCNC(=N)N)NC(=O)[C@H](CCCNC(=N)N)NC)C(=O)N[C@@H](CC(C)C)C(=O)O [Compound 45] | > 1000 nM | > 1000 nM | 93 ± 1% | 92 ± 1% | 86 ± 1% | 77 ± 1% | 
8 | CN[C@@H](CCCNC(N)=NC(=O)NCCOCCOCCNC(=O)[C@H](N)Cc1ccc(-c2ccc(F)cc2)cc1)C(=O)N[C@@H](CCCNC(=N)N)C(=O)N1CCC[C@H]1C(=O)N[C@@H](Cc1ccc(O)cc1)C(=O)N[C@H](C(=O)N[C@@H](CC(C)C)C(=O)O)C(C)(C)C [Compound 26] | 3.1 nM | 3.02 nM |  |  |  |  | 
9 | CN[C@@H](CCCNC(N)=NC(=O)NCCCCNC(=O)[C@@H](Cc1ccc(-c2ccc(F)cc2)cc1)NC(=O)CN1CCN(CC(=O)O)CCN(CC(=O)O)CCN(CC(=O)O)CC1)C(=O)N[C@@H](CCCNC(=N)N)C(=O)N1CCC[C@H]1C(=O)N[C@@H](Cc1ccc(O)cc1)C(=O)N[C@H](C(=O)N[C@@H](CC(C)C)C(=O)O)C(C)(C)C [Compound 34] | 10 nM | 10.2 nM |  |  |  |  | 
10 | CC[C@H](C)[C@H](NC(=O)[C@H](Cc1ccc(O)cc1)NC(=O)[C@@H]1CCCN1C(=O)[C@H](CCCNC(=N)N)NC(=O)[C@H](CCCNC(=N)N)NC)C(=O)N[C@@](C)(CC(C)C)C(=O)O [Compound 47] |  |  | 89 ± 1% | 88 ± 1% | 81 ± 1% | 73 ± 1% | 
11 | CC[C@H](C)[C@H](NC(=O)[C@H](Cc1ccc(O)cc1)NC(=O)[C@@H]1CCCN1C(=O)[C@H](CCCNC(=N)NC(=O)NCCCCN)NC(=O)[C@H](CCCNC(=N)N)NC)C(=O)N[C@@H](CC(C)C)C(=O)O [Compound 9] |  |  | 99 ± 2% | 57 ± 2% | 3 ± 0.1% | 1.4 ± 0.3% | 
12 | CC[C@H](C)[C@H](NC(=O)[C@H](Cc1ccc(O)cc1)NC(=O)[C@@H]1CCCN1C(=O)[C@H](CCCNC(=N)NC(=O)NCCCCNC(=O)CN1CCN(CC(=O)O)CCN(CC(=O)O)CCN(CC(=O)O)CC1)NC(=O)[C@H](CCCNC(=N)N)NC)C(=O)N[C@@H](CC(C)C)C(=O)O [Compound 20] |  |  |  |  | 15 ± 1% | 4.6 ± 0.1% | % Intact Peptide in Plasma after 1 h (in vitro): >99%; % Intact Peptide in Plasma after 6 h (in vitro): 77 ± 2%
13 | CN[C@@H](CCCNC(N)=NC(=O)NCCOCCOCCNC(=O)[C@@H](Cc1ccc(-c2ccc(F)cc2)cc1)NC(=O)CN1CCN(CC(=O)O)CCN(CC(=O)O)CCN(CC(=O)O)CC1)C(=O)N[C@@H](CCCNC(=N)N)C(=O)N1CCC[C@H]1C(=O)N[C@@H](Cc1ccc(O)cc1)C(=O)N[C@H](C(=O)N[C@@H](CC(C)C)C(=O)O)C(C)(C)C [Compound 35] | 14 nM | 13.5 nM |  |  |  |  | 
14 | CC[C@H](C)[C@H](NC(=O)[C@@H](NC(=O)[C@@H]1CCCN1C(=O)[C@H](CCCNC(=N)N)NC(=O)[C@H](CCCNC(N)=NC(=O)NCCCCNC(=O)CN1CCN(CC(=O)O)CCN(CC(=O)O)CCN(CC(=O)O)CC1)NC)C(C)(C)c1ccc(O)cc1)C(=O)N[C@@H](CC(C)C)C(=O)O [Compound 56] |  |  | > 99% | > 99% | 77 ± 1% | < 1% | half-life at 100 µM (in vitro; plasma): > 24 h
15 | CN[C@@H](CCCNC(N)=NC(=O)NCCOCCOCCNC(=O)[C@@H](Cc1ccc(-c2ccc(F)cc2)cc1)NC(=O)CCCCCNC(=O)CN1CCN(CC(=O)O)CCN(CC(=O)O)CCN(CC(=O)O)CC1)C(=O)N[C@@H](CCCNC(=N)N)C(=O)N1CCC[C@H]1C(=O)N[C@@H](Cc1ccc(O)cc1)C(=O)N[C@H](C(=O)N[C@@H](CC(C)C)C(=O)O)C(C)(C)C [Compound 32] | 12 nM | 10.7 nM |  |  |  |  | 
16 | CN[C@@H](CCCNC(=N)NC(=O)NCCCCNC(=O)CN1CCN(CC(=O)O)CCN(CC(=O)O)CCN(CC(=O)O)CC1)C(=O)N[C@@H](CCCNC(=N)N)C(=O)N1CCC[C@H]1C(=O)N[C@H](C(=O)N[C@H](C(=O)N[C@@H](CC(C)C)C(=O)O)C(C)(C)C)C(C)(C)c1ccc(O)cc1 [Compound 55] | 85 nM | 79.4 nM |  |  |  |  | 
17 | CC[C@H](C)[C@H](NC(=O)[C@H](NC(=O)[C@@H]1CCCN1C(=O)[C@H](CCCNC(=N)N)NC(=O)[C@H](CCCNC(=N)N)NC)C(C)(C)c1ccc(O)cc1)C(=O)N[C@@H](CC(C)C)C(=O)O [Compound 49] |  |  | 96 ± 2% | 96 ± 1% | 94 ± 5% | 95 ± 2% | 
18 | CC[C@H](C)[C@H](NC(=O)[C@H](Cc1ccc(O)cc1)NC(=O)[C@@H]1CCCN1C(=O)[C@H](CCCNC(=N)NC(=O)NCCCCNC(=O)CN1CCN(CC(=O)O)CCN(CC(=O)O)CCN(CC(=O)O)CC1)NC(=O)[C@H](CCCNC(=N)N)NC)C(=O)N[C@@H](CC(C)C)C(=O)O [Compound 15] |  |  |  |  |  |  | % Intact Peptide in Plasma after 1 h (in vitro): 78 ± 1%; % Intact Peptide in Plasma after 6 h (in vitro): 8.3 ± 0.4%
